The target of test [1] is human CB1 receptor (hCB1) (Homo sapiens, UniProt P21554). The test is described as follows: cell-based. Type of test: cell-based. The note with it: for +/− HCB1: agonist or inverse agonist at hCB1. The gist of the method:
(§1)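 First, cells in IBMX-containing HEPES-buffered HBSS are raised to elevated cAMP with 2-8 μM NKH-477 for 30 min. Data are normalised to the forskolin and forskolin + 1 μM CP55,940 controls.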

Another test has as its target T1, rat CB2 receptor (rCB2) (Rattus norvegicus, UniProt Q9QZN9).
T1 sequence (Q9QZN9 1-360): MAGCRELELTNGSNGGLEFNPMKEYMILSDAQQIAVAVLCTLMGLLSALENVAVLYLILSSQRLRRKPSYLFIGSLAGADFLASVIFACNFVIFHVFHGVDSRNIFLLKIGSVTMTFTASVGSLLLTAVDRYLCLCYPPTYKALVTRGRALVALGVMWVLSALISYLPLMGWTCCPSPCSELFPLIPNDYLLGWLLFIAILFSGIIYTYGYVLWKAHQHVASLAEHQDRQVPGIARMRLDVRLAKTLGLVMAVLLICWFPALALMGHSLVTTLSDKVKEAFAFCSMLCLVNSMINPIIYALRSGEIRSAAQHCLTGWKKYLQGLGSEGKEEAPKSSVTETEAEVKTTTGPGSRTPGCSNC
In words: cell-based. Conditions: for +/− RCB2: agonist or inverse agonist at rCB2. The class given is cell-based. The method in brief:
as §1

Like-named read-outs stand apart in the source and are kept apart here. Where only a bound is given, the exact number is not on record here.

As a reminder, the EC50 is the concentration that produces a half-maximal response.

Sequence of human CB1 receptor (hCB1) (P21554 whole entry): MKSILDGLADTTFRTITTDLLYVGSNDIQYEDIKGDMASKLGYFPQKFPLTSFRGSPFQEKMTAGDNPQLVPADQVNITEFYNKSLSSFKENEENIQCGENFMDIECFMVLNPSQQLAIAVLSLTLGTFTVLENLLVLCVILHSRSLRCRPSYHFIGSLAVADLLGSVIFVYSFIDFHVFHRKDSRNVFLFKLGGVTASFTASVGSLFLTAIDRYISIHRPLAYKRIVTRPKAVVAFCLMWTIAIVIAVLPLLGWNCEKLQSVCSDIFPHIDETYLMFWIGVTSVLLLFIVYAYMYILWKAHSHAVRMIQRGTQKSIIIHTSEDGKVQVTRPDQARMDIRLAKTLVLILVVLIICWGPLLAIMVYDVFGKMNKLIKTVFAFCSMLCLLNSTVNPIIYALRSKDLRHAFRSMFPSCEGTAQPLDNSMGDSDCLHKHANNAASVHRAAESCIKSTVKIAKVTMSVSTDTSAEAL

On to `CC(=O)N1CCn2c(-c3ccccc3)nc(C(=O)N[C@H](C)C3CCCCC3)c2C1` [Compound 170, (R)-7-acetyl-N-(1-cyclohexylethyl)-3-phenyl-5,6,7,8-tetrahydro-imidazo[1,5-a]pyrazine-1-carboxamide], for which, in test [1], the EC50 was > 10000 nM. Moreover, on rat CB2 receptor (rCB2), the “+/− RCB2” value is on record as “−”.

With `CNC(=O)[C@@H](NC(=O)c1nc(C2=CCC3(CC2)OCCO3)n2c1CN(C)CCC2)C(C)(C)C` [Compound 448, (S)-N-(3,3-dimethyl-1-(methylamino)-1-oxobutan-2-yl)-8-methyl-3-(1,4-dioxaspiro[4.5]dec-7-en-8-yl)-6,7,8,9-tetrahydro-5H-imidazo[1,5-a][1,4]diazepine-1-carboxamide], the “+/− HCB1” value in test [1] is “+”. Further, the “+/− RCB2” value on rat CB2 receptor (rCB2) is reported as “+”.

As for `CCN1CCn2c(-c3ccccc3)nc(C(=O)N[C@@H](C)c3ccccc3)c2C1` [Compound 147, (S)-7-ethyl-3-phenyl-N-(1-phenylethyl)-5,6,7,8-tetrahydroimidazo[1,5-a]pyrazine-1-carboxamide], the EC50 in test [1] is > 10000 nM. Further, at rat CB2 receptor (rCB2), the “+/− RCB2” value is “−”.

In the case of `CNC(=O)[C@@H](NC(=O)c1nc(-c2cccc(C(=O)N3CCOCC3)c2)n2c1CN(C)CCC2)C(C)(C)C` [Compound 386, (S)-N-(3,3-dimethyl-1-(methylamino)-1-oxobutan-2-yl)-8-methyl-3-(3-(morpholine-4-carbonyl)phenyl)-6,7,8,9-tetrahydro-5H-imidazo[1,5-a][1,4]diazepine-1-carboxamide], the concentration giving a half-maximal response (EC50) (in test [1]; on rat CB2 receptor (rCB2)) was > 10000 nM each time.

As to `CNC(=O)[C@@H](NC(=O)c1nc(C2CCCC2)n2c1CN(C)CC2)C(C)(C)C` [Compound 303, (S)-3-cyclopentyl-N-(3,3-dimethyl-1-(methylamino)-1-oxobutan-2-yl)-7-methyl-5,6,7,8-tetrahydroimidazo [1,5-a]pyrazine-1-carboxamide], the concentration for a half-maximal effect (EC50) in test [1] is > 10000 nM. Besides, the “+/− RCB2” value at rat CB2 receptor (rCB2) was “+”.

Consider `CNC(=O)[C@@H](NC(=O)c1nc(-c2ccccc2)n2c1CN(S(=O)(=O)c1ccc(F)cc1)CCC2)C(C)(C)C` [Compound 464, (S)-N-(3,3-dimethyl-1-(methylamino)-1-oxobutan-2-yl)-8-(4-fluorophenylsulfonyl)-3-phenyl-6,7,8,9-tetrahydro-5H-imidazo[1,5-a][1,4]diazepine-1-carboxamide], for which, in test [1], the EC50 was > 10000 nM. In addition, the “+/− RCB2” value on rat CB2 receptor (rCB2) is on record as “−”.

In the case of `CNC(=O)[C@@H](NC(=O)c1nc(-c2cncnc2)n2c1CN(C)CC2)C(C)(C)C` [Compound 239, (S)-N-(3,3-dimethyl-1-(methylamino)-1-oxobutan-2-yl)-7-methyl-3-(pyrimidin-5-yl)-5,6,7,8-tetrahydroimidazo[1,5-a]pyrazine-1-carboxamide], the concentration for a half-maximal effect (EC50) in test [1] (groups >100 nM-10 μM and >10 μM, cAMP, CHO-K1 hCB1, read-out: EC50 HCB1) was > 10000 nM; on rat CB2 receptor (rCB2) (groups >100 nM-10 μM and >10 μM, cAMP, CHO-K1 rCB2, read-out: EC50 RCB2), > 10000 nM.

As to `CNC(=O)[C@@H](NC(=O)c1nc(-c2ccncc2)n2c1CN(C)CCC2)C(C)(C)C` [Compound 402, (S)-N-(3,3-dimethyl-1-(methylamino)-1-oxobutan-2-yl)-8-methyl-3-(pyridin-4-yl)-6,7,8,9-tetrahydro-5H-imidazo[1,5-a][1,4]diazepine-1-carboxamide], in test [1], the EC50 is > 10000 nM. Besides, the “+/− RCB2” value on rat CB2 receptor (rCB2) was “+”.

Take `CNC(=O)[C@H](CC(C)C)NC(=O)c1nc(-c2cccc(F)c2)n2c1CN(C)CCC2` [Compound 531, (S)-3-(3-fluorophenyl)-8-methyl-N-(4-methyl-1-(methylamino)-1-oxopentan-2-yl)-6,7,8,9-tetrahydro-5H-imidazo[1,5-a][1,4]diazepine-1-carboxamide]: the concentration for a half-maximal effect (EC50) in test [1] is > 10000 nM. For the same compound, the “+/− RCB2” value on rat CB2 receptor (rCB2) is recorded as “+”.

In the case of `CC(C)CCNC(=O)c1nc(-c2ccc(Cl)cc2)n2c1CN(C(=O)c1ccccc1)CC2` [Compound 130, 7-benzoyl-3-(4-chlorophenyl)-N-isopentyl-5,6,7,8-tetrahydroimidazo[1,5-a]pyrazine-1-carboxamide], the half-maximal effective concentration (EC50) in test [1] was > 10000 nM. Also, the “+/− RCB2” value on rat CB2 receptor (rCB2) was “−”.

On to `CNC(=O)[C@@H](NC(=O)c1nc(-c2ccc(C(=O)N(C)C)cc2)n2c1CN(C)CCC2)C(C)(C)C` [Compound 394, (S)-N-(3,3-dimethyl-1-(methylamino)-1-oxobutan-2-yl)-3-(4-(dimethylcarbamoyl)phenyl)-8-methyl-6,7,8,9-tetrahydro-5H-imidazo[1,5-a][1,4]diazepine-1-carboxamide], for which the 50% effective concentration (EC50) in test [1] is > 10000 nM. The “+/− RCB2” value at rat CB2 receptor (rCB2) is “−”.

With `CNC(=O)[C@@H](NC(=O)c1nc(-c2ccccc2)n2c1CN(CC(C)C)CC2)C(C)(C)C` [Compound 148, (S)-N-(3,3-dimethyl-1-(methylamino)-1-oxobutan-2-yl)-7-isobutyl-3-phenyl-5,6,7,8-tetrahydroimidazo[1,5-a]pyrazine-1-carboxamide], the concentration giving a half-maximal response (EC50) in test [1] was > 10000 nM. The “+/− RCB2” value on rat CB2 receptor (rCB2) is “−”.

As to `CNC(=O)[C@@H](NC(=O)c1nc(-c2cccc(C#N)c2)n2c1CN(C)CCC2)C(C)(C)C` [Compound 328, (S)-3-(3-cyanophenyl)-N-(3,3-dimethyl-1-(methylamino)-1-oxobutan-2-yl)-8-methyl-6,7,8,9-tetrahydro-5H-imidazo[1,5-a][1,4]diazepine-1-carboxamide], the EC50 in test [1] was > 10000 nM. Moreover, at rat CB2 receptor (rCB2), the “+/− RCB2” value was “+”.

As for `CNC(=O)[C@@H](NC(=O)c1nc(-c2ccc(C#N)cc2)n2c1CN(C)CCC2)C(C)(C)C` [Compound 342], the EC50 (in test [1]; at rat CB2 receptor (rCB2)) was > 10000 nM each time.

Take `CNC(=O)[C@@H](NC(=O)c1nc(CC(C)C)n2c1CN(C)CCC2)C(C)(C)C` [Compound 486, (S)-N-(3,3-dimethyl-1-(methylamino)-1-oxobutan-2-yl)-3-isobutyl-8-methyl-6,7,8,9-tetrahydro-5H-imidazo[1,5-a][1,4]diazepine-1-carboxamide]: the EC50 in test [1] was > 10000 nM. Further, the “+/− RCB2” value on rat CB2 receptor (rCB2) was “+”.

Take `CC(=O)N1CCn2c(-c3ccccc3)nc(C(=O)NCC3CCOCC3)c2C1` [Compound 176, 7-acetyl-3-phenyl-N-((tetrahydro-2H-pyran-4-yl)methyl)-5,6,7,8-tetrahydroimidazo[1,5-a]pyrazine-1-carboxamide]: the EC50 (in test [1]; on rat CB2 receptor (rCB2)) was > 10000 nM each time.

In the case of `CNC(=O)[C@@H](NC(=O)c1nc(C2CCCCO2)n2c1CN(C)CCC2)C(C)(C)C` (stereo partly drawn) [Compound 504, N-((S)-3,3-dimethyl-1-(methylamino)-1-oxobutan-2-yl)-8-methyl-3-(tetrahydro-2H-pyran-2-yl)-6,7,8,9-tetrahydro-5H-imidazo[1,5-a][1,4]diazepine-1-carboxamide], the EC50 in test [1] was > 10000 nM. In addition, the “+/− RCB2” value on rat CB2 receptor (rCB2) is “+”.

`CN1CCCn2c(-c3cc(Cl)ccc3F)nc(C(=O)N[C@H](C(=O)N(C)C)C(C)(C)C)c2C1` [Compound 559, (S)-3-(5-chloro-2-fluorophenyl)-N-(1-(dimethylamino)-3,3-dimethyl-1-oxobutan-2-yl)-8-methyl-6,7,8,9-tetrahydro-5H-imidazo[1,5-a][1,4]diazepine-1-carboxamide]: the “+/− HCB1” value in test [1] was “+”. For the same compound, on rat CB2 receptor (rCB2), the EC50 was > 10000 nM.

As to `CC(C)CN1CCn2c(-c3ccc(Cl)cc3)nc(C(=O)N[C@H](CO)C(C)(C)C)c2C1` [Compound 160, (S)-3-(4-chlorophenyl)-N-(1-hydroxy-3,3-dimethylbutan-2-yl)-7-isobutyl-5,6,7,8-tetrahydroimidazo[1,5-a]pyrazine-1-carboxamide], the EC50 in test [1] is > 10000 nM. Besides, the “+/− RCB2” value on rat CB2 receptor (rCB2) was “−”.
